Experimental data reported in patent publication US20250197374A1, “WEE1 DEGRADING COMPOUNDS AND USES THEREOF” (BRISTOL-MYERS SQUIBB COMPANY, priority 2023, published 2025).

Target: T1, WEE1 (Homo sapiens, UniProt P30291+Q96SW2)
T1 construct: C-terminal ePL-tagged (DiscoverX, Fremont, CA) full-length WEE1 expression construct; expressed in transfected cells; host or cells: LentiX-HEK293T (Invitrogen), lentivirally transduced; the cells also over-express GSPT1-GN
Experiment: WEE1-ePL degradation assay (293T-LentiX, InCELL Hunter luminescence, 4 hr)
Type: cell-based
Settings: for 293T-LentiX WEE1-ePL Degradation 4 hr YMin (%): lower limit of fit, % of DMSO control signal remaining; for DC50: LentiX-HEK293T cells expressing WEE1-ePL, 4 hr incubation, read-out: 293T-LentiX WEE1-ePL Degradation 4 hr EC50
From the text: To generate LentiX-WEE1-ePL-GSPT1-ND cells for the WEE1 degradation assay, LentiX-HEK293T (Invitrogen) were tranduced by lentivirus with a C-terminal ePL-tagged (DiscoverX, Fremont, CA) full-length WEE1 expression construct. A separate lentiviral construct was introduced to over-express a mutated form of GSPT1 (NP_002085), termed GSPT1-GN, which contains a G575N mutation and is further truncated in the first 158 amino acids. GSPT1-GN is functional but not degradable by Cereblon. Cells were selected and maintained in complete DMEM media (DMEM, 10% Heat Inactivated FBS, 400 μg/mL Geneticin, and 1 μg/mL puromycin at 37 C and 5% CO2). Cells were passaged every 3-4 days by reseeding 1×10^6 cells in a T150 flask.
Cells were dispensed into 384-well white plates (Corning #3570, NY) that were pre-spotted with compounds using an acoustic dispenser (Echo acoustic transfer system, Beckman Coulter Life Sciences, Carlsbad, CA) as a 10-point dose-response curve with a 3-fold dilution starting at either 1 uM or 10 uM and including a DMSO control. Twenty-five microliters of media containing 2500 cells for LentiX-oeWEE1-ePL was dispensed per well. Assay plates were incubated at 37° C. with 5% CO2 for four hours (WEE1) After incubation, 25 μL of the InCELL Hunter™ Detection Reagent Working Solution (DiscoverX, Fremont, CA) was added to each well and incubated at room temperature for 30 minutes protected from light. After 30 minutes, luminescence was read on a PHERAstar luminometer (Cary, NC).
To determine the half-maximal effective concentration (EC50) values for WEE1-ePL degradation, a four parameter logistic model was used: (Sigmoidal Dose-Response Model) (FIT=(A+((B−A)/1+((C/x)^D)))) where C is the inflection point (EC50), D is the Hill slope, and A and B are the low and high limits of the fit respectively). The lower limit of the fit (value A) is referred to as Ymin. […] The maximum limit constraint, Ymax, is similarly derived using DMSO control. The curves were processed and evaluated using Activity Base (IDBS, Alameda, CA) or using Dotmatics (Boston, MA).

T1 sequence (P30291 whole entry): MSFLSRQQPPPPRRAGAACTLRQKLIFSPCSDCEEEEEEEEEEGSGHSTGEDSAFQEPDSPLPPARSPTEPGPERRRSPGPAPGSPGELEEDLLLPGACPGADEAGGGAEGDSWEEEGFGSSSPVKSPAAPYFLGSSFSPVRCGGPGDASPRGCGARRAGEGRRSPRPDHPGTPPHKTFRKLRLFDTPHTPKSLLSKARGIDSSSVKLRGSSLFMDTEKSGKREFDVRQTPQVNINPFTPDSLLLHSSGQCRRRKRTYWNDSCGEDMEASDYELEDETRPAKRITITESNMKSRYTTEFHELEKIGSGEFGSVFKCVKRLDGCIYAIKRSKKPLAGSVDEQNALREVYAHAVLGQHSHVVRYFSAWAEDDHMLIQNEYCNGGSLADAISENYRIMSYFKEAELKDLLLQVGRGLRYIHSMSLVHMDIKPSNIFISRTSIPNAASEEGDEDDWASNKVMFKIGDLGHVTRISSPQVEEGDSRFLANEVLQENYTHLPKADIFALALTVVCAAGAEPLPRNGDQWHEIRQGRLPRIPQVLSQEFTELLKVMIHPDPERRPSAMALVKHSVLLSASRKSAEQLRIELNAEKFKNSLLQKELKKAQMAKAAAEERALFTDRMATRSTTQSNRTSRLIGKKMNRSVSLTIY
T1 sequence (Q96SW2 whole entry): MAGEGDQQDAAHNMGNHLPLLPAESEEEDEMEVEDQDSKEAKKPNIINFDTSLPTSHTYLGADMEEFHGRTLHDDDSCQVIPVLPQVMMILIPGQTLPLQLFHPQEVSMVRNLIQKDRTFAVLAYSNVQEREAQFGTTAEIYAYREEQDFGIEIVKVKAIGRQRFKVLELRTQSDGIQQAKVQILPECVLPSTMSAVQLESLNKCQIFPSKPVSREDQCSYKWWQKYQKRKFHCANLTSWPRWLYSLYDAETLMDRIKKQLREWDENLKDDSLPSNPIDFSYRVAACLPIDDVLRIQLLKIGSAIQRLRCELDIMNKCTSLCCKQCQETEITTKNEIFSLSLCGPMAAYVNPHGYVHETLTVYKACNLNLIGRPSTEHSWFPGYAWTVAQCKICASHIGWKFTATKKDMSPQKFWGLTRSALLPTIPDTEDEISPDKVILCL
T1 sequence (Q16531 whole entry partner): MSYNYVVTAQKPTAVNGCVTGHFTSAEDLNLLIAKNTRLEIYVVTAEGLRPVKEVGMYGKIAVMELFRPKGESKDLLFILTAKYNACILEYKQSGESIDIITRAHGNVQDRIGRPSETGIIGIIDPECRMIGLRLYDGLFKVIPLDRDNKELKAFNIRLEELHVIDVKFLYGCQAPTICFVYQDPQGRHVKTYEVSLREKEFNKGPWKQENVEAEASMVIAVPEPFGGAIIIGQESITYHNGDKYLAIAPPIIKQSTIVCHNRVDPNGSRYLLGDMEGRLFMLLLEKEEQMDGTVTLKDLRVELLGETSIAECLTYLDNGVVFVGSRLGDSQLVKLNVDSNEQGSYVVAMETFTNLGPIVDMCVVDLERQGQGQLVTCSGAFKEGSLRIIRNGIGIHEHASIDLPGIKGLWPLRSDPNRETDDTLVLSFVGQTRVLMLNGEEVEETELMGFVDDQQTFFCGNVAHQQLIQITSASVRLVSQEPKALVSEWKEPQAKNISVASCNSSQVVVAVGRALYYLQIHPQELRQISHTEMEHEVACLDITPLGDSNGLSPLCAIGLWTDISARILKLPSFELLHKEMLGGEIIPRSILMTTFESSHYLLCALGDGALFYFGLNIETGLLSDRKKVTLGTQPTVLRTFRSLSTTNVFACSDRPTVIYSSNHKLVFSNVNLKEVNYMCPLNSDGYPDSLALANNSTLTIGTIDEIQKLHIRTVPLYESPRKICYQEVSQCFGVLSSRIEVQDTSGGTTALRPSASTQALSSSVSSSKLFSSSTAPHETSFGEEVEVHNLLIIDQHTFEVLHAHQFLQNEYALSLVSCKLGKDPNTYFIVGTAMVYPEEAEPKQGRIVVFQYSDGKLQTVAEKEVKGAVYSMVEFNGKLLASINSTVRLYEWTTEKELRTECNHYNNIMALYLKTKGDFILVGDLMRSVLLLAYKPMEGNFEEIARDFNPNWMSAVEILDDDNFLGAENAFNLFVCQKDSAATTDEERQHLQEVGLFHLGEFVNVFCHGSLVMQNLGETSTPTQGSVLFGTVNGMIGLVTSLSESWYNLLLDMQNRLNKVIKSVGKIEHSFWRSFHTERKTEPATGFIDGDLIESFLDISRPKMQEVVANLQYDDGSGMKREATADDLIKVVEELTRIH

293T-LentiX WEE1-ePL Degradation 4 hr YMin (%)	DC50	Compound
90.0%	–	Cc1cc([C@@H]2CN(Cc3cc(F)c4nc(C5CCOCC5)ccc4c3)C[C@H]2Oc2ccc3c(c2)CN([C@H]2CCC(=O)NC2=O)C3=O)ccn1 (relative stereo) [Example 126, (3S)-3-(5-{[(3S*,4R*)-1-{[8-fluoro-2-(oxan-4-yl)quinolin-6-yl]methyl}-4-(2-methylpyridin-4-yl)pyrrolidin-3-yl]oxy}-1-oxo-2,3-dihydro-1H-isoindol-2-yl)piperidine-2,6-dione]
100.0%	–	CC(C)(C)C[C@@H]1CN(Cc2cc(F)c3nc(C4CCOCC4)ccc3c2)C[C@H]1Oc1ccc2c(c1)CN([C@H]1CCC(=O)NC1=O)C2=O (relative stereo) [Example 131, (3S)-3-(5-{[(3S*,4R*)-4-(2,2-dimethylpropyl)-1-{[8-fluoro-2-(oxan-4-yl)quinolin-6-yl]methyl}pyrrolidin-3-yl]oxy}-1-oxo-2,3-dihydro-1H-isoindol-2-yl)piperidine-2,6-dione]
58.0%	0.07 µM	O=C1CCC(N2Cc3cc(O[C@@H]4CN(Cc5cc(F)c6nc(C7CCOCC7)ccc6c5)C[C@H]4OC4COC4)ccc3C2=O)C(=O)N1 (relative stereo) [Example 133, rel-3-(5-(((3R,4R)-1-((8-fluoro-2-(tetrahydro-2H-pyran-4-yl)quinolin-6-yl)methyl)-4-(oxetan-3-yloxy)pyrrolidin-3-yl)oxy)-1-oxoisoindolin-2-yl)piperidine-2,6-dione]
48.5%	0.01 µM	CC(C)(C)C[C@H]1CN(Cc2cc(F)c3nc(C4CCOCC4)ccc3c2)C[C@@H]1Oc1ccc2c(c1)CN([C@H]1CCC(=O)NC1=O)C2=O (relative stereo) [Example 150, (3S)-3-(5-{[(3R*,4S*)-4-(2,2-dimethylpropyl)-1-{[8-fluoro-2-(oxan-4-yl)quinolin-6-yl]methyl}pyrrolidin-3-yl]oxy}-1-oxo-2,3-dihydro-1H-isoindol-2-yl)piperidine-2,6-dione]
22.4%	0.011 µM	Cc1cc([C@H]2CN(Cc3cc(F)c4nc(C5CCOCC5)ccc4c3)C[C@@H]2Oc2ccc3c(c2)CN([C@H]2CCC(=O)NC2=O)C3=O)ccn1 (relative stereo) [Example 151, (3S)-3-(5-{[(3R*,4S*)-1-{[8-fluoro-2-(oxan-4-yl)quinolin-6-yl]methyl}-4-(2-methylpyridin-4-yl)pyrrolidin-3-yl]oxy}-1-oxo-2,3-dihydro-1H-isoindol-2-yl)piperidine-2,6-dione]
82.2%	–	O=C1CCC(N2Cc3cc(O[C@H]4CN(Cc5cc(F)c6nc(C7CCOCC7)ccc6c5)C[C@@H]4OC4COC4)ccc3C2=O)C(=O)N1 (relative stereo) [Example 152, rel-3-(5-(((3S,4S)-1-((8-fluoro-2-(tetrahydro-2H-pyran-4-yl)quinolin-6-yl)methyl)-4-(oxetan-3-yloxy)pyrrolidin-3-yl)oxy)-1-oxoisoindolin-2-yl)piperidine-2,6-dione]
20.1%	–	COC[C@@H]1CN(Cc2ccc3ncc(N4CCOCC4)cc3c2F)C[C@H]1Oc1ccc2c(c1)CN([C@H]1CCC(=O)NC1=O)C2=O [Example 31, (3S)-3-(5-{[(3S,4S)-1-{[5-fluoro-3-(morpholin-4-yl)quinolin-6-yl]methyl}-4-(methoxymethyl)pyrrolidin-3-yl]oxy}-1-oxo-2,3-dihydro-1H-isoindol-2-yl)piperidine-2,6-dione]
24.5%	0.002 µM	COC[C@@H]1CN(Cc2cc(F)c3cc(N4CCOCC4)ncc3c2)C[C@H]1Oc1ccc2c(c1)CN([C@H]1CCC(=O)NC1=O)C2=O [Example 49, (3S)-3-(5-{[(3S,4S)-1-{[5-fluoro-3-(morpholin-4-yl)isoquinolin-7-yl]methyl}-4-(methoxymethyl)pyrrolidin-3-yl]oxy}-1-oxo-2,3-dihydro-1H-isoindol-2-yl)piperidine-2,6-dione]
